Reference: patent US8440708B2, “Triazole-substituted arylamides as P2X3 and P2X2/3 antagonists” (Roche Palo Alto LLC, priority 2007, dated 2013)

How the values were obtained:
human P2X2/3 receptor = target: T1, human P2X2/3 receptor (Homo sapiens, UniProt P56373+Q9UBL9); assay: P2X3/P2X2/3 FLIPR (Fluorometric Imaging Plate Reader) Assay, P2X2/3; assay type: cell-based; details: CHO-K1 cells transfected with human P2X2/3; agonist α,β-meATP 5 μM; Table 1; read-out: P2X2/3 pKi (converted)
T1 construct: expressed in transfected cells; host or cells: CHO-K1
T1 sequence (Q9UBL9 1-471): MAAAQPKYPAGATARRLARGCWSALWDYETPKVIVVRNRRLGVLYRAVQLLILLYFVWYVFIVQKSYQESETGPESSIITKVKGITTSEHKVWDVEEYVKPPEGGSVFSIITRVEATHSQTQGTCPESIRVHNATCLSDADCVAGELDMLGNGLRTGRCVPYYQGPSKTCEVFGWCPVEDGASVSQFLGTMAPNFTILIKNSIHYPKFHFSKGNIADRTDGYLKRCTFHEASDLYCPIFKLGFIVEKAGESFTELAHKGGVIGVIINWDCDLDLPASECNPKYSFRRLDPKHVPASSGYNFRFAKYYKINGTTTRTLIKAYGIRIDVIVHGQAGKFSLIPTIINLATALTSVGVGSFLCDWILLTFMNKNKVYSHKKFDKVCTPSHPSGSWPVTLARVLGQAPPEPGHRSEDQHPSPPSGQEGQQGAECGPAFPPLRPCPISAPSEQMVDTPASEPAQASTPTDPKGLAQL
T1 sequence (P56373 1-397): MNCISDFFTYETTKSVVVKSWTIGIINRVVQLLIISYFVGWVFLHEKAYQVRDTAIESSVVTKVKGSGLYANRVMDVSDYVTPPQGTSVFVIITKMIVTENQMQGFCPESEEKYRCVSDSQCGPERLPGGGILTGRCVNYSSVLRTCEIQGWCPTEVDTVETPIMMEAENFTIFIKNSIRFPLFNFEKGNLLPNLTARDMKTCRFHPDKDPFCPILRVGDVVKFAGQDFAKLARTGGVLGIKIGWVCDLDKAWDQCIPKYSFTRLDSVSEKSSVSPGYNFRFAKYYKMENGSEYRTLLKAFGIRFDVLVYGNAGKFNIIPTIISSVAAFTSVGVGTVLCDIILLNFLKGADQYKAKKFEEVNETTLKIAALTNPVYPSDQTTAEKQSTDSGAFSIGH
In short: (§1)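 Inhibition curves came from nonlinear regression of peak fluorescence after α,β-meATP, given at 1 μM final for rat P2X3 and 5 μM for human P2X2/3. Compounds sat 20 min at room temperature on Fluo-3-loaded transfected CHO-K1 cells in HBSS/HEPES/2 mM CaCl2/probenecid buffer before agonist.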

rat P2X3 receptor = target: T2, rat P2X3 receptor (Rattus norvegicus, UniProt P49654); assay: P2X3/P2X2/3 FLIPR (Fluorometric Imaging Plate Reader) Assay, P2X3; assay type: cell-based; details: CHO-K1 cells transfected with rat P2X3; agonist α,β-meATP 1 μM; Table 1; read-out: P2X3 pKi (converted)
T2 construct: expressed in transfected cells; host or cells: CHO-K1
T2 sequence (P49654 1-397): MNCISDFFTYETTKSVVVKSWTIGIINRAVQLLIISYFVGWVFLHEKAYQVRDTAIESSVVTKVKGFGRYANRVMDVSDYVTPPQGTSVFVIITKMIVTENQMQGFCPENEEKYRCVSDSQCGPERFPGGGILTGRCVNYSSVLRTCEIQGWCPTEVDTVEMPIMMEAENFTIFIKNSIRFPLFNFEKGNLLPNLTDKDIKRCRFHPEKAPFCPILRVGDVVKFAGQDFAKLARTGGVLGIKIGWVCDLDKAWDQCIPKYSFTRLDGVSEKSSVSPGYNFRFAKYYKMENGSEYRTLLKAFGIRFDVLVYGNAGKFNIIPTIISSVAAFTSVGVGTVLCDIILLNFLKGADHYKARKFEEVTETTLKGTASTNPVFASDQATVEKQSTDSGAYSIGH
In short: as §1

| Ki (human P2X2/3 receptor) [nM] | Ki (rat P2X3 receptor) [nM] | Structure (SMILES) |
| --- | --- | --- |
| 8710 | 75.9 | C[C@@H](CO)NC(=O)c1cc(-c2ccc(Cl)cn2)cc(-n2ncnc2C(F)F)c1 [Compound 78, 3-(5-Chloro-pyridin-2-yl)-5-(5-difluoromethyl-[1,2,4]triazol-1-yl)-N-((S)-2-hydroxy-1-methyl-ethyl)-benzamide] |
| 3890 | 45.7 | C[C@@H](CO)NC(=O)c1cc(-c2ccc(Cl)cn2)cc(-n2ncnc2C(F)(F)F)c1 [Compound 81, 3-(5-Chloro-pyridin-2-yl)-N-((S)-2-hydroxy-1-methyl-ethyl)-5-(5-trifluoromethyl-[1,2,4]triazol-1-yl)-benzamide] |
| 1350 | 6.03 | Cc1ccc(-c2cc(C(=O)NCc3cnc(C)cn3)cc(-n3ncnc3C(C)(C)C)c2)nc1 [Compound 82, 3-(5-tert-Butyl-[1,2,4]triazol-1-yl)-N-(5-methyl-pyrazin-2-ylmethyl)-5-(5-methyl-pyridin-2-yl)-benzamide] |
| 115 | 12.3 | CC(NC(=O)c1cc(-c2ccc(Cl)cn2)cc(-n2ncnc2C(C)(C)C)c1)c1cnccn1 (stereo not shown) [Compound 83, 3-(5-tert-Butyl-[1,2,4]triazol-1-yl)-5-(5-chloro-pyridin-2-yl)-N-(1-pyrazin-2-yl-ethyl)-benzamide] |
| 427 | 14.1 | Cc1cnc(CNC(=O)c2cc(-c3ccc(Cl)cn3)cc(-n3ncnc3C(C)(C)C)c2)cn1 [Compound 84, 3-(5-tert-Butyl-[1,2,4]triazol-1-yl)-5-(5-chloro-pyridin-2-yl)-N-(5-methyl-pyrazin-2-ylmethyl)-benzamide] |
| 3550 | 41.7 | C[C@@H](CO)NC(=O)c1cc(-c2ccc(Cl)cn2)cc(-n2ncnc2C(C)(C)C)c1 [Compound 85, 3-(5-tert-Butyl-[1,2,4]triazol-1-yl)-5-(5-chloro-pyridin-2-yl)-N-((S)-2-hydroxy-1-methyl-ethyl)-benzamide] |
| 646 | 4.07 | CC(C)Cc1ncnn1-c1cc(C(=O)N[C@@H](C)CO)cc(-c2ccc(Cl)cn2)c1 [Compound 90, 3-(5-Chloro-pyridin-2-yl)-N-((S)-2-hydroxy-1-methyl-ethyl)-5-(5-isobutyl-[1,2,4]triazol-1-yl)-benzamide] |
| 10000 | 575 | C[C@@H](CO)NC(=O)c1cc(-c2ccc(Cl)cn2)cc(-n2ncnc2CF)c1 [Compound 93, 3-(5-Chloro-pyridin-2-yl)-5-(5-fluoromethyl-[1,2,4]triazol-1-yl)-N-((S)-2-hydroxy-1-methyl-ethyl)-benzamide] |
| 10000 | 12.3 | Cc1ccc(-c2cc(C(=O)N[C@@H](C)CO)cc(-n3ncnc3C(C)(C)C)c2)nc1 [Compound 94, 3-(5-tert-Butyl-[1,2,4]triazol-1-yl)-N-((S)-2-hydroxy-1-methyl-ethyl)-5-(5-methyl-pyridin-2-yl)-benzamide] |
| 117 | 5.37 | Cc1ccc(-c2cc(C(=O)NC(C)c3cnccn3)cc(-n3ncnc3C(C)(C)C)c2)nc1 (stereo not shown) [Compound 95, 3-(5-tert-Butyl-[1,2,4]triazol-1-yl)-5-(5-methyl-pyridin-2-yl)-N-(1-pyrazin-2-yl-ethyl)-benzamide] |
| 4680 | 8.13 | Cc1ccc(-c2cc(C(=O)N[C@@H](C)CO)cc(-n3ncnc3C(F)(F)F)c2)nc1 [Compound 97, N-((S)-2-Hydroxy-1-methyl-ethyl)-3-(5-methyl-pyridin-2-yl)-5-(5-trifluoromethyl-[1,2,4]triazol-1-yl)-benzamide] |

Further lines, the molecule ahead of its results:

| Structure (SMILES) | Ki (human P2X2/3 receptor) [nM] | Ki (rat P2X3 receptor) [nM] |
| --- | --- | --- |
| CC(NC(=O)c1cc(-c2ccc(Cl)cn2)cc(-n2ncnc2C(F)(F)F)c1)c1cnccn1 (stereo not shown) [Compound 79, 3-(5-Chloro-pyridin-2-yl)-N-(1-pyrazin-2-yl-ethyl)-5-(5-trifluoro-methyl-[1,2,4]triazol-1-yl)-benzamide] | 372 | 8.51 |
| Cc1cnc(CNC(=O)c2cc(-c3ccc(Cl)cn3)cc(-n3ncnc3C(F)(F)F)c2)cn1 [Compound 80, 3-(5-Chloro-pyridin-2-yl)-N-(5-methyl-pyrazin-2-ylmethyl)-5-(5-trifluoromethyl-[1,2,4]triazol-1-yl)-benzamide] | 275 | 8.91 |
| Cc1ccc(-c2cc(C(=O)NCc3cnc(C)cn3)cc(-n3ncnc3C3CCC3)c2)nc1 [Compound 86, 3-(5-Cyclobutyl-[1,2,4]triazol-1-yl)-N-(5-methyl-pyrazin-2-ylmethyl)-5-(5-methyl-pyridin-2-yl)-benzamide] | 33.1 | 2.29 |
| Cc1ccc(-c2cc(C(=O)NC(C)c3cnccn3)cc(-n3ncnc3C3CCC3)c2)nc1 (stereo not shown) [Compound 87, 3-(5-Cyclobutyl-[1,2,4]triazol-1-yl)-5-(5-methyl-pyridin-2-yl)-N-(1-pyrazin-2-yl-ethyl)-benzamide] | 35.5 | 2.63 |
| Cc1cnc(CNC(=O)c2cc(-c3ccc(Cl)cn3)cc(-n3ncnc3CC(C)C)c2)cn1 [Compound 89, 3-(5-Chloro-pyridin-2-yl)-5-(5-isobutyl-[1,2,4]triazol-1-yl)-N-(5-methyl-pyrazin-2-ylmethyl)-benzamide] | 89.1 | 4.17 |
| CC(NC(=O)c1cc(-c2ccc(Cl)cn2)cc(-n2ncnc2CF)c1)c1cnccn1 (stereo not shown) [Compound 91, 3-(5-Chloro-pyridin-2-yl)-5-(5-fluoromethyl-[1,2,4]triazol-1-yl)-N-(1-pyrazin-2-yl-ethyl)-benzamide] | 2950 | 31.6 |
| Cc1cnc(CNC(=O)c2cc(-c3ccc(Cl)cn3)cc(-n3ncnc3CF)c2)cn1 [Compound 92, 3-(5-Chloro-pyridin-2-yl)-5-(5-fluoromethyl-[1,2,4]triazol-1-yl)-N-(5-methyl-pyrazin-2-ylmethyl)-benzamide] | 2570 | 21.4 |
| Cc1ccc(-c2cc(C(=O)NC3CC3)cc(-n3ncnc3C(F)(F)F)c2)nc1 [Compound 96, N-Cyclopropyl-3-(5-methyl-pyridin-2-yl)-5-(5-trifluoromethyl-[1,2,4]triazol-1-yl)-benzamide] | 1260 | 4.57 |
| Cc1ccc(-c2cc(C(=O)NC(C)c3cnccn3)cc(-n3ncnc3C(F)(F)F)c2)nc1 (stereo not shown) [Compound 98, 3-(5-Methyl-pyridin-2-yl)-N-(1-pyrazin-2-yl-ethyl)-5-(5-trifluoromethyl-[1,2,4]triazol-1-yl)-benzamide] | 45.7 | 2.24 |
| Cc1ccc(-c2cc(C(=O)NCc3cnc(C)cn3)cc(-n3ncnc3C(F)(F)F)c2)nc1 [Compound 99, N-(5-Methyl-pyrazin-2-ylmethyl)-3-(5-methyl-pyridin-2-yl)-5-(5-trifluoromethyl-[1,2,4]triazol-1-yl)-benzamide] | 36.3 | 3.24 |
| Cc1ccc(-c2cc(C(=O)NC(C)c3cnccn3)cc(-n3ncnc3C)c2)nc1 (stereo not shown) [Compound 100, 3-(5-Methyl-pyridin-2-yl)-5-(5-methyl-[1,2,4]triazol-1-yl)-N-(1-pyrazin-2-yl-ethyl)-benzamide] | 2040 | 10.2 |
| Cc1ccc(-c2cc(C(=O)NCc3cnc(C)cn3)cc(-n3ncnc3C)c2)nc1 [Compound 101, N-(5-Methyl-pyrazin-2-ylmethyl)-3-(5-methyl-pyridin-2-yl)-5-(5-methyl-[1,2,4]triazol-1-yl)-benzamide] | 1150 | 7.94 |
